Results published in article PMC12520456, “Regulating Enzyme Activity via Microaggregates Mediated by Phase Separation” (Advanced Science, 2025).
Non-standard residues stand in square brackets, D forms with d. Residues, ends and D or L forms follow the SMILES beside them.

Tests used:
[1] = molecular target: T1, chymotrypsin pre-incubated with aprotinin (Bos taurus, UniProt P00766); assay: Fluorescence anisotropy binding, aprotinin-blocked chymotrypsin; conditions: inhibitor and protein both at 20 μM; Figure S3C
T1 construct: purchased Aladdin (chymotrypsin); Yeasen Biotechnology (aprotinin)
Text: Figure S3. The fluorescent anisotropy evaluation of binding affinity between DPMD peptide with Proteinase K (A), and inhibitor-saturated and blocked trypsin (B) and chymotrypsin (C). Trypsin/Chymotrypsin was saturated and blocked by aprotinin (Yeasen Biotechnology, trypsin/chymotrypsin inhibitor). (D-H) The fluorescent anisotropy evaluation of binding affinity between DPMD peptide with elastase (D), lipase (E), amylase(F), carboxypeptidase (G), albumin (H) and immunoglobulins (I).
Figure S4. The DLS analysis of trypsin, chymotrypsin and DPMD with/without trypsin or chymotrypsin. […]
data acquisition. A series of enzyme solutions with varying concentrations (maximum concentrations of trypsin and chymotrypsin were 20 μM each) were prepared in Tris-HCl buffer (10 mM Tris, 150 mM NaCl, 1 mM EDTA, pH 7.0). These enzyme solutions were added to the 96-well plate and incubated with 100 nM DPMD at room temperature for 30 minutes, with triplicates.
Fluorescence polarization was measured with an excitation wavelength of 470 nm and an emission […]
Plot the fluorescence intensity versus concentration data as scatter plots using Origin software.
For data analysis, fit the concentration-fluorescence polarization data with the logistic function in Origin 2021 software to obtain the fitting curve and determine the half-maximal effective concentration (EC50). […]

[2] = Turbidity and CLSM phase separation of DPMD with trypsin/chymotrypsin; format: physicochemical
Text: Next, these intriguing microaggregates were further investigated using fluorescence recovery after photobleaching (FRAP) experiments. […] To directly visualize the liquid–solid phase separation process, we performed time‐lapse confocal microscopy on mixtures of DPMD and trypsin/chymotrypsin. Initially, numerous small, spherical DPMD‐rich microdroplets appeared upon enzyme addition and gradually grew into larger droplets within minutes (Figure S5A, Supporting Information). […] We next examined whether the enzyme–peptide aggregates remain stable under varying physiological conditions, such as changes in pH and enzyme concentration.
Figure S5. (A) The CLSM images of DPMD with enzyme and DPMD without enzyme under different time. (B) Turbidity measurements result illustrating the phase separation of DPMD -treated trypsin and chymotrypsin at different concentrations or pH shifts . % represents the mass fraction of the DPMD/trypsin/chymotrypsin . (C) The CLSM images of DPMD with enzyme, DPMD without enzyme and DPMD with enzyme and aprotinin. (D&E) The CLSM images of DPMD with enzyme and DPMD without enzyme under different pH (D) or enzyme concentrations […]
(1 picture or pasted object on this page, not shown here)
0.22μm filter to remove residue. The calcium content of the supernatant was measured using the Calcium ion detection kit (Beyotime) according to the recommended method. […]
Peptide and enzyme solutions were prepared at varying concentrations and mixed at a 1:1 volume ratio. Solution turbidity was quantitatively assessed by monitoring absorbance at 405 nm using a BioTek spectrophotometer. For fluorescence-based characterization, peptides were labeled with FITC while enzymes were labeled with Cy5. […] For fluorescence recovery after photobleaching (FRAP) analysis, enzyme-aggregated patches were selectively bleached at 60% laser power using 488/640 nm lasers for 10 s, followed by time-lapse imaging at 1-min intervals. […] Fluorescence intensity in the photobleached region was measured using ImageJ software , with values normalized to pre-bleach baselines. […]

## CC[C@@H](C)[C@@H](NC(=O)[C@@H](CCC(N)=O)NC(=O)[C@H](NC(=O)[C@@H](Cc1ccc(O)cc1)NC(=O)CNC(=O)[C@@H](CC(C)C)NC(=O)[C@H](NC(=O)[C@@H](CO)NC(=O)CNC(=O)[C@@H](C)NC(=O)[C@@H](CC(=O)O)NC(=O)[C@@H](C)NC(=O)[C@@H](CCCNC(=N)N)NC(=O)[C@@H](C)NC(=O)[C@@H](CC(=O)O)NC(=O)[C@@H](C)NC(=O)[C@@H](CCCNC(=N)N)NC(=O)[C@@H](C)NC(=O)[C@@H](CC(=O)O)NC(=O)[C@@H](C)NC(=O)[C@@H](CCCNC(=N)N)NC(=O)[C@@H](C)NC(=O)[C@@H](CC(=O)O)NC(=O)[C@@H](C)NC(=O)[C@H](N)CCCNC(=N)N)C(C)C)[C@H](C)CC)C(=O)N[C@H](CCCNC(=N)N)C(=O)O [DPMD, Ac‐(D‐RADA)4‐CONH2] (H-[dR][dA][dD][dA][dR][dA][dD][dA][dR][dA][dD][dA][dR][dA][dD][dA]G[dS][dV][dL]G[dY][dI][dQ][dI][dR]-OH; N-terminus and C-terminus assumed)
[1]
  anisotropy change with aprotinin-blocked chymotrypsin: only a minimal anisotropy change
[2]; absorbance at 405 nm, DPMD and trypsin/chymotrypsin mixtures 1:1 volume, across a range of pH levels and enzyme concentrations, Figure S5B
  phase separation by turbidity: robust phase separation
[2]; enzyme pre-incubated with aprotinin, CLSM, Figure S5C
  phase separation with aprotinin-neutralized protease: no significant phase separation occurred
[2]; pH 5.6 and pH 8.4, mixtures with trypsin/chymotrypsin, Figure S5D
  aggregate formation at shifted pH: still became cloudy and formed microscopically visible droplets/aggregates
